Laboratory results reported in a melting point compilation (Tetko et al.; mined from patent text by program, amines drawn as free bases though some values may be those of a salt).

melting point | Compound
188 to 190 °C | O=C(O)c1ccc(S(F)(F)(F)(F)F)cc1
132 to 133 °C | O=C(O)CCCC(=O)S[C@@H]1CC(=O)N(Cc2ccc(Oc3ccc(F)cc3)nc2)C1
159 °C | CC#CCOc1cc(Nc2ccccc2)ncn1
164 to 165 °C | CCc1nnc(Cc2ccc(NC(=O)/C=C/c3cnn(C)c3-c3ccc(F)cc3)cc2)o1
160 to 161 °C | O=C(NC1CCCCC1)c1ccn2nc(-c3ccccc3)c(-c3cccc(Cl)c3)c2n1
256 to 258 °C | CCOCCOc1ccc(COc2ccc3c(c2)C=C(C(=O)O)CCS3(=O)=O)cc1
203 °C | OC1CSC(Oc2cncc(-c3cccnc3)c2)C(O)C1O (centres undefined)
209 to 210 °C | CC(C)c1ccc2c(c1)c(-c1ccccc1Cl)c(NC(=O)Nc1cccc(C(F)(F)F)c1)c(=O)n2C
149 to 151 °C | CCCCNC(=O)c1cc(=O)c(Oc2ccccc2)co1
139 to 140 °C | CCOC(=O)c1nn(C(=O)Nc2ccccc2)c(C)c1C
138 to 141 °C | COc1ccc(-c2nc(CNC(C)=O)sc2-c2ccc(OC)cc2)cc1
65 to 70 °C | CCNC(=O)c1ccc(OCC(O)c2ccc3c(c2)C(C)(C)CCC3(C)C)cc1O (centres undefined)
118 to 119 °C | COc1ccccc1CCc1ccccc1C(=O)O
167 to 168 °C | O=C(O)c1ccc(N(CCOc2cccc3ccccc23)C(=O)C(F)(F)F)cc1
113 to 115 °C | COc1ccc2c(c1)c(CCO)c(C)n2Cc1ccc(Cl)cc1
221 to 222 °C | COc1cc(COc2nn(-c3ccccc3)cc2C=CC(=O)NNC(C)=O)ccc1OCc1nc(-c2ccco2)oc1C
257 °C | Cc1nc(NC(=O)c2cnn3c(C(F)(F)F)cc(-c4ccc(C(F)(F)F)cc4)nc23)sc1S(=O)(=O)NC(C)(C)CO
176 to 177 °C | CC(C)Cn1cnc2c(N)nc3ccc(CCCCc4ccccc4)cc3c21
210 °C | O=C(NC(Cc1ccc(OCc2ccccc2)cc1)C(=O)O)c1cn2cccc(OCc3ccc(Cl)cc3)c2n1 (centres undefined)
123 to 125 °C | COc1cc(NC(=O)Nc2ccccc2)c(O)c(OC)c1OC
170 to 172 °C | CN1CCN(c2ccc([N+](=O)[O-])c(CS(=O)(=O)c3ccccc3)n2)CC1
106 °C | O=C(O)C(Oc1ccc(F)c(C(F)(F)F)c1)c1ccc(Cl)cc1 (centres undefined)
116 to 118 °C | CN(C(CCn1c(=O)cc(C(F)(F)F)[nH]c1=O)C(=O)NO)S(=O)(=O)c1ccc(Oc2ccncc2)cc1 (centres undefined)
159 to 160 °C | OC1(c2ccc(F)cc2)N=C2SCCN2C1c1ccc(F)cc1 (centres undefined)
164 to 166 °C | CCc1c(Cc2ccccc2)c2ccc(OC)cc2n1CC(=O)NN
178 to 179 °C | COc1ccc(-c2ccc(C(=O)O)cc2)cc1OCCCCc1ccccc1
156 to 157 °C | CCNCC(=O)Nc1cc(NS(C)(=O)=O)c(Oc2ccccc2)cc1[N+](=O)[O-]

melting point | Compound
175 to 176 °C | ClCc1coc(C=C2c3ccccc3-c3ccccc32)n1
198 °C | CCn1c(=O)c2c(nc(/C=C/c3ccc(OC(C)=O)cc3)n2C)n(CC)c1=O
108 to 112 °C | CC(C)(C)c1ccc(-c2cc(-c3ccccc3)c(-c3ccccc3)s2)cc1
171 to 172 °C | O=C(NCCO)c1cccc(-c2ccc3c(c2)C(Oc2ccc(Cl)cc2Cl)CCC3)c1 (centres undefined)
204 to 205 °C | COC(=O)c1cc(C(=O)NC(C)(C)CO)c2cc(Cc3ccc(F)cc3)cnc2c1O
127 to 129 °C | COc1ccc(S(=O)(=O)N(Cc2ccccc2)C(C)C(=O)NO)cc1 (centres undefined)
170 to 172 °C | O=P(O)(O)C(F)(F)c1ccc(CN(Cc2ccc(C(F)(F)P(=O)(O)O)cc2)S(=O)(=O)c2ccccc2Cl)cc1
188 °C | C=Cn1nc(-c2c(-c3ccccc3)nn3ccccc23)ccc1=O
175 to 176 °C | COc1ccc(CCC(=O)O)cc1C(=O)NCc1cccnc1
85 °C | CC(=O)Nc1cc(C(F)(F)F)ccc1N1CCOCC1
139 °C | CN(C(=O)OCc1ccccc1)C1CCN(CC2(C)Cn3cc([N+](=O)[O-])nc3O2)CC1 (centres undefined)
221 °C | O=C(COc1ccc(C(=O)OCc2ccccc2)cc1)NN=C1C(=O)Nc2ccc(I)cc21
255 to 257 °C | NCc1ccc(Nc2ncnc3[nH]cc(C(=O)c4ccccc4)c23)cc1
> 300 °C | O=C(Nc1ccc(-c2c[nH]c(=O)cn2)cc1)c1ccccc1
202 to 204 °C | Cn1ncc2c1-c1c(Oc3ccc4c(c3)OCO4)sc(C(=O)NCc3ccncc3)c1CC2
188 to 189 °C | O=C(O)COc1c(Br)cc(C(=O)c2ccc3ccccc3c2)cc1Br
144 to 145 °C | NC(=O)N1CC(c2ccccc2)c2ccccc21 (centres undefined)
100 to 101 °C | CCC(CC)c1nn(-c2ccc(C(F)(F)F)cn2)cc1CCCOc1c(CC(=O)O)cccc1OC
> 300 °C | O=C(CCc1ccccc1)Oc1n[nH]c(=O)c2nc3cc(Cl)ccc3c(O)c12
137 to 139 °C | CC(C)(C)OC(=O)Nc1ccc(C#Cc2ccccc2F)cc1N
75 to 77 °C | Cc1cccc(-c2cc(Cl)c3ccccc3n2)c1
148 to 149 °C | CCCCCOc1cc2c(cc1/C=C/c1ccc(C(=O)O)cc1)C(C)(C)CCC2(C)C
136 °C | CCOC(=O)c1c(CCc2ccc(OC)cc2)nc2c(c1-c1ccc(C(=O)NCc3ccco3)cc1)C(=O)N1CCC[C@H]21
267 to 268 °C | COc1cc(OC)cc(C(=O)CC(=O)c2ccc(O)cc2O)c1
111 to 112 °C | CC(Oc1ccc(Oc2ccccc2)cc1)(C(=O)O)C(F)(F)F (centres undefined)
176 to 178 °C | CCOC(=O)Cc1c(C2CCCCC2)nn(-c2ccccc2)c1-c1ccccc1

The next lines start with the compound.

Compound | melting point
O=C(Nc1cnccn1)C(Cl)(Cl)Cl | 68 °C
COC(=O)c1ccc(C(C)(C)C)[nH]c1=O | 171 to 174 °C
Nc1sc2c(c1C(=O)c1ccc(Cl)cc1)CCSC2 | 142 to 146 °C
CON(C)C(=O)c1cc(Cl)nc(Cl)c1 | 69 to 70 °C
CCCCn1c(=O)c2cn(S(=O)(=O)c3cc(Cl)c(Cl)s3)nc2n(CCCC)c1=O | 181 to 182 °C
CCCc1nc(N)cc(OC)n1 | 97 to 99 °C
Cc1c(C(=O)Nc2ccc(N3CCC(N4CCOCC4)CC3)c(C#N)c2)cnn1-c1ccc(Br)cc1 | 250 to 252 °C
CCc1ccc2c(c1)C=Cc1cc(C)ccc1C2c1cn(-c2ccnc(N3CC(C(=O)Nc4nc(CC(=O)O)cs4)C3)n2)c(=O)[nH]c1=O (centres undefined) | 235 °C
Cn1cnc2c1c(=O)n(CCCN1CCN(c3ccc(Cl)nn3)CC1)c(=O)n2C | 285 to 287 °C
CC(C)CN(C=Nc1nnnc2c1ncn2C1CC(O)C(CO)O1)CC(C)C (centres undefined) | 138 to 140 °C
O=C1OC(=O)C2CCCC1C2 | 138 to 140 °C
Cc1nc2c(N)nc3ccccc3c2n1CCS(C)(=O)=O | 242 to 245 °C
COC(=O)c1ccc(OC)c2oc(/C=C\C(=O)O)cc12 | 175 to 178 °C
CC(C)(C)CC(C)(C)c1ccc(N)c([N+](=O)[O-])c1 | 104 to 107 °C
CC(=O)CCCN1CC[C@H](CNC(=O)c2cc(Cl)c(N)c3c2OCC3)[C@H](O)C1 (relative stereo) | 118 °C
Cc1cc(Cl)cnc1N | 63 to 64 °C
C[C@@H]1COC(=O)N1c1nc(-c2cccc(C#N)c2)cs1 | 187 to 189 °C
COc1ccc(N2CCN(c3c(C)c(C)c4c(c3C)C(c3cccc(C)c3)C(C)(C)O4)CC2)cc1 (centres undefined) | 159 to 161 °C
COc1cc(OC)cc(-c2ncoc2-c2ccc(OC)c(O)c2N)c1 | 140 to 143 °C
Cc1ccc2c(c1)C(=O)N(C)Cc1c(C(N)=O)ncn1-2 | 290 to 294 °C
CN1CNS(=O)(=O)c2cc(O)ccc21 | 168 to 172 °C
COc1cccc(OC)c1N(COCC(C)C)C(=O)CCl | 107 to 110 °C
CNc1cc(C(O)CS(C)(=O)=O)cc(N(C)C(C)=O)c1C (centres undefined) | 191 to 192 °C

Compound | melting point
COc1cc(OC)nc(-n2cnc(N)n2)n1 | 219 °C
CNc1nc(Cl)c(OC(F)F)c(N(C)C)n1 | 127 to 130 °C
N#Cc1ccc(OC[C@H]2C[C@@H](O)CN2c2ccc(C#N)c3ccccc23)c2ccccc12 | 123 to 126 °C
CCOC(=O)c1ncn2c1CNC(=O)c1c(Cl)cccc1-2 | 278 to 279 °C
O=C(O)c1c(Cl)cc(Cl)nc1Cl | 138 to 141 °C
O=C(O)C(CC1CCCC1)c1ccc(Cl)c([N+](=O)[O-])c1 (centres undefined) | 112 to 115 °C
O=C(O)c1ccc(C(F)F)s1 | 111 to 112 °C
CCCn1c(=O)c2[nH]c(C3CCCC3)nc2n(CCc2ccc(N)cc2)c1=O | 248 to 250 °C
CC1=CC(=O)C(=Cc2ccc(O)cc2O)O1 | 239 to 242 °C
CN1CCN(c2cc(NC(=O)OC(C)(C)C)c([N+](=O)[O-])cc2I)CC1 | 134 to 136 °C
N#CC(=NO)c1cc(F)ccc1F | 64 to 67 °C
CNc1nc(Nc2ccc(Cl)c(Cl)c2)ncc1N1C(=O)CNC1=O | 301 °C
CCOC(=O)c1c(S(N)(=O)=O)nc2sccn12 | 164 to 166 °C
CCCCN(Cc1ccc(-c2ccccc2-c2nnnn2C(c2ccccc2)(c2ccccc2)c2ccccc2)cc1)c1nc(C)ncc1C(=O)OCC | 130 to 132 °C
COc1c([N+](=O)[O-])cc(Br)c2c1C(=CC#N)CC2 | 156 to 158 °C
O=C(Cc1ccc(OCc2ccccc2)cc1OCc1ccccc1)N1CCN(Cc2ccccc2)CC1 | 104 to 106 °C
O=C1NN=C(c2ccc3c(c2)CCN(C2CCC2)CC3)C2CC12 (centres undefined) | 129 to 132 °C
CCCCCCCCCOc1ccc(Cl)c(C(N)=O)c1F | 75 to 77 °C
CCCCCCCCCCCCCCCCCCOc1cn(Cc2ccccc2)c(CO)cc1=O | 120 to 121 °C
CC(C#Cc1ccc(Cl)cc1)N(O)C(N)=O (centres undefined) | 159 to 161 °C
C=CCOc1ccccc1OCC(O)CN1CCC(N2CCCNC2=O)CC1 (centres undefined) | 122 to 125 °C
NCC(=O)N1CCC(C2c3ncc(Br)cc3CCc3cc(Cl)cc(Cl)c32)CC1 (single isomer, unassigned; (+)) | 81 to 122 °C
CC(C)(C)NC(=O)c1nn(-c2ccc(Cl)cc2F)c2c1C1CCC2C1 (centres undefined) | 148 to 152 °C
